The record followed here is ChEMBL document CHEMBL5038614, “Discovery of styrylaniline derivatives as novel alpha-synuclein aggregates ligands” (Eur J Med Chem, 2021).

One series deals with Alpha-synuclein (Homo sapiens, UniProt P37840). The series is described as follows: Binding affinity to recombinant human alpha-syn aggregates assessed as dissociation constant by SPR analysis. A general note: Surface plasmon resonance follows binding to a sensor surface in real time, without labels.
A short description of series [1]: Ratio of drug concentration in Sprague-Dawley rat brain to plasma at 5 mg/kg, iv measured upto 120 mins by LC-MS/MS analysis. In kind it is ADME, organism-based. The following applies: read-out: BPR.
Series [2] is described as follows: Permeability of compound in BBB assay. In kind it is ADME.
A short description of series [3]: Plasma concentration in Sprague-Dawley rat at 5 mg/kg, iv measured upto 120 mins by LC-MS/MS analysis. In kind it is ADME, organism-based.
Series [4] is filed under the species Mus musculus. The series is described as follows: Binding affinity to alpha-syn PFF in acute C57BL/6 mouse brain striatum measured after 1 hrs by immunofluorescence confocal microscopic analysis. In kind it is tissue-based.
Series [5] is filed under the species Mus musculus. The series is described as follows: Binding affinity to alpha-syn PFF in chronic C57BL/6 mouse brain straitum measured for 1 hrs by immunofluorescence confocal microscopic analysis. The format is tissue-based. The following applies: Striatum.
Series [6] is described as follows: Brain concentration in Sprague-Dawley rat at 5 mg/kg, iv measured upto 120 mins by LC-MS/MS analysis. In kind it is ADME, organism-based. The following applies: read-out: Ct.
The species entered for series [7] is Mus musculus. Description: Binding affinity to alpha-syn PFF in chronic C57BL/6 mouse M2 motor cortex measured for 1 hrs by immunofluorescence confocal microscopic analysis. In kind it is tissue-based.

The source made the active and inactive calls. The rule behind the calls is not given here.

For orientation: Kd means the constant that tells how readily two partners part at equilibrium. On to `COc1ccc(/C=C/c2ccccc2NC(=O)c2cccs2)cc1`, for which the Kd at Alpha-synuclein was > 10 µM.

As for `O=C(Nc1ccccc1/C=C/c1ccc(F)cc1)c1cccnn1`, the Kd at Alpha-synuclein was > 10 µM.

Consider `COc1ccc(/C=C/c2ccccc2NC(=O)NCc2cnccn2)cc1`, for which, at Alpha-synuclein, the Kd is > 10 µM.

As to `O=C(Nc1ccccc1/C=C/c1ccc([N+](=O)[O-])cc1)c1cccnn1`, the Kd at Alpha-synuclein was > 10 µM.

On to `COc1ccc(/C=C/c2ccc(NC(=O)c3ccccc3)cc2)cc1`, for which the Kd at Alpha-synuclein was > 10 µM.

In the case of `COc1ccc(/C=C/c2ccccc2NC(=O)c2cccnc2)cc1`, on Alpha-synuclein, the Kd is > 10 µM.

For the compound `O=C(Nc1ccc(/C=C/c2ccc(F)cc2)cc1)c1ccccc1`, the Kd at Alpha-synuclein was > 10 µM.

Turning to `CN(C)c1ccc(/C=C/c2ccccc2NC(=O)c2ccccn2)cc1`, the Kp at 2 h in series [1] was 2.62. Also, the pBBB in series [2] is recorded as > 0.3. The values for the concentration at 2 h in series [3] and in series [6] were 6.06 µM and 15.9 µM, respectively. In the series filed under Mus musculus [4], the result was inactive. Also, the outcome in the series filed under Mus musculus [5] was Active.

On to `O=C(Nc1ccccc1/C=C/c1ccc([N+](=O)[O-])cc1)c1ccccn1`, for which the outcome in the series listed under Mus musculus [7], in the series listed under Mus musculus [4] and in the series listed under Mus musculus [5] was Active. Further, the Kp at 2 h in series [1] was 1.21. For the same compound, the pBBB in series [2] was > 0.3. Also, the results for the concentration at 2 h in series [3] and in series [6] were 38.5 µM and 46.8 µM, respectively.

Take `COc1ccc(/C=C/c2ccccc2NC(=O)c2cccnn2)cc1`: at Alpha-synuclein, the Kd is > 10 µM.
